Data as given in EP0670315A1, “Triazole oxime derivatives having antimycotic acitivity” (priority 1994, dated 1995).
Converted amounts (≈) assume the structure as drawn. Where two headings read alike, the source gives them in different places.

Tests used:
[1] = system: Aspergillus fumigatus strain IFM0063; assay: Minimum Inhibitory Concentration (MIC), agar plate dilution method; type: cell-based; details: Sabouraud's dextrose agar, 30°C for 2 days, visual growth
Experimental: (§1) MIC measurements were conducted by an agar plate dilution method. Stated specifically, Aspergillus fumigatus strains IFM0063 and IFM4942 were cultured on a potato dextrose agar medium at 27°C for 10 days, and the growing conidia were suspended in a sterile physiological saline containing 0.05% Tween 80 to give a concentration of 10⁸ - 10⁹ conidia per ml. The suspension was conditioned in a Sabouraud's dextrose broth medium at a concentration of 10⁵ spores per ml and a 5-µl aliquot of the culture was inoculated into a drug-containing Sabouraud's dextrose agar medium and cultured at 30°C for 2 days. The growth of fungi was observed visually and the minimum concentration of the test drug that could inhibit the fungal growth was designated as its MIC.

[2] = system: Aspergillus fumigatus strain IFM4942; assay: as above; type: cell-based; details: Sabouraud's dextrose agar, 30°C for 2 days, visual growth
Experimental: as §1

[3] = Toxicity test, repeated oral administration to mice; type: in vivo; details: 4-wk old mice, 5 consecutive days, 100 mg/kg
Experimental: The four selected compounds of the invention (those prepared in Examples 1, 2, 9 and 30) were administered orally to 4-wk old mice for 5 consecutive days at a dose of 100 mg/kg.

[4] = system: Aspergillus fumigatus strain IFM41944; assay: Treatment of infection, protocol 1: mice infected with Aspergillus fumigatus, oral treatment, survival; type: in vivo; details: for ED50: Aspergillus fumigatus, IFM41944, ICR male mice, i.v. infection 1 × 10⁷ conidia, oral one hour after infection and following four days once a day, survival at 7th day, Litchfield-Wilcoxon, read-out: ED₅₀
Experimental: (§2) Mice infected with Aspergillus fumigatus were administered selected compounds of the invention orally and their therapeutic effect was measured. Stated specifically, ICR male mice (4-wk old) in groups each consisting of 10 animals were injected with Aspergillus fumigatus strain IFM41944 by injecting it into the tail vein at a concentration of 1 × 10⁷ conidia per animal. Each test compound was administered orally to the mice one hour after the infection and for the following four continuous days on a once-a-day basis. The number of mice that survived at the 7th day of the infection was counted (the day of infection was day "zero") and the ED₅₀ of each test compound was calculated by the Litchfield-Wilcoxon method to estimate its therapeutic effect.

[5] = system: Candida albicans strain IFM40009; assay: Treatment of infection, protocol 2: mice infected with Candida albicans, oral treatment, survival; type: in vivo; details: ICR male mice, i.v. infection 1 × 10⁶ cells, oral once after an hour of infection, survival at 7th day, Litchfield-Wilcoxon
Experimental: as §2, with “Candida albicans” for “Aspergillus fumigatus”, “IFM40009” for “IFM41944”, “10⁶ cells” for “10⁷ conidia”, “once after an” for “one”, “of infection.” for “after the infection and for the following four continuous days on a once-a-day basis.”

[6] = Solubility (usefulness as injections); type: physicochemical
[7] = system: Candida albicans strain IFM40009; assay: Treatment of infection, protocol 3: cyclophosphamide-immunosuppressed mice infected with Candida albicans, oral treatment, survival; type: in vivo; details: ICR male mice immunosuppressed with cyclophosphamide 100 mg/kg i.p. twice, i.v. infection 1 × 10⁶ cells, oral once after an hour of infection, survival at 7th day, read-out: ED₅₀
Experimental: Experimentally prepared immunosuppressed mice were infected with Candida albicans; they were then administered selected compounds of the invention orally and the therapeutic effect of the compounds was measured.
Stated specifically, ICR male mice (4-wk old) in groups each consisting of 10 animals were administered cyclophosphamide intraperitoneally at a dose of 100 mg/kg; four days later, the mice were similarly administered cyclophosphamide intraperitoneally to be rendered experimentally immunosuppressed. Simultaneously with the second shot of cyclophosphamide, Candida albicans strain IFM40009 was administered to the tail vein of each animal at a concentration of 1 × 10⁶ cells per animal to induce infection. Each test compound was administered orally to the mice once after an hour of infection.
The number of mice that survived at the 7th day of the infection was counted (the day of infection was day "zero") and the ED₅₀ of each test compound was calculated by the Litchfield-Wilcoxon method to estimate its therapeutic effect.

[8] = reported in prior art; cited from earlier work
[9] = Aspergillus fumigatus, IFM0063, 48 h, read-out: MIC
[10] = Aspergillus fumigatus, IFM4942, 48 h, read-out: MIC

Structure (SMILES) | MIC [1, 9] [µg/mL] | MIC [2, 10] [µg/mL] | ED50 [5] [mg/kg] | further results
CCCC(=NOC)C1(C(O)(Cn2cncn2)c2ccc(F)cc2F)CC1 (centres unmarked) [Example 9] | 6.25 (≈ 17.2 µM) | 6.25 (≈ 17.2 µM) |  | evidence for abnormality [3]: no evidence for abnormality; ED50 [4]: 20.2 mg/kg
CCCC(=NOCn1cncn1)C1(C(O)(Cn2cncn2)c2ccc(F)cc2F)CC1 (centres unmarked) [Example 46] |  |  | 15.7 | 
COC(C)ON=C(C(C)C)C1(C(O)(Cn2cncn2)c2ccc(F)cc2F)CC1 (centres unmarked) [Example 75, 1-[1-[1-(2,4-difluorophenyl)-1-hydroxy-2-(1H-1,2,4-triazol-1-yl)ethyl]cyclopropyl]-2-methyl-1-propanone O-(1-methoxyethyl)oxime] |  |  | 8.6 | 
CC(=NO)C(C)(C)C(O)(Cn1cncn1)c1ccc(F)cc1F (centres unmarked) [Example 29] | 6.25 (≈ 19.3 µM) | 12.5 (≈ 38.5 µM) |  | 
CC(C)C(=NOCn1cncn1)C1(C(O)(Cn2cncn2)c2ccc(F)cc2F)CC1 (centres unmarked) [Example 30, 1-[1-[1-(2,4-difluorophenyl)-1-hydroxy-2-(1H-1,2,4-triazol-1-yl)ethyl]cyclopropyl]-2-methyl-1-propanone O-[(1H-1,2,4-triazol-1-yl)methyl]oxime] |  |  |  | solubility [6]: good enough solubility to be useful as injections; evidence for abnormality [3]: no evidence for abnormality; ED50 [4]: 43.4 mg/kg
CCC(=NOCOC)C1(C(O)(Cn2cncn2)c2ccc(F)cc2F)CC1 (centres unmarked) [Example 10] | 6.25 (≈ 16.4 µM) | 12.5 (≈ 32.9 µM) |  | 
COC(C)(C)ON=C(C(C)C)C1(C(O)(Cn2cncn2)c2ccc(F)cc2F)CC1 (centres unmarked) [Example 74, 1-[1-[1-(2,4-difluorophenyl)-1-hydroxy-2-(1H-1,2,4-triazol-1-yl)ethyl]cyclopropyl]-2-methyl-1-propanone O-(1-methoxy-1-methylethyl)oxime] |  |  | 8.9 | 
CCC(=NOC)C1(C(O)(Cn2cncn2)c2ccc(F)cc2F)CC1 (centres unmarked) [Example 11] | 3.13 (≈ 8.93 µM) | 3.13 (≈ 8.93 µM) |  | 
OC(Cn1cncn1)(Cn1cncn1)c1ccc(F)cc1F [Fluconazole, fluconazole, reference compound] | > 100 | > 100 | 11.7 | ED50 [7]: 54.4 mg/kg; ED50 [4]: > 100 mg/kg; antimycotic action in Aspergillus fumigatus infected animal models ([4]; doses up to 100 mg/kg, oral, mice): did not show any antimycotic action
CCC(=NOC)C(C)(C)C(O)(Cn1cncn1)c1ccc(F)cc1F (centres unmarked) [Example 22] | 1.56 (≈ 4.43 µM) | 3.13 (≈ 8.88 µM) |  | 
CCC(C)n1ncn(-c2ccc(N3CCN(c4ccc(OCC5COC(Cn6cncn6)(c6ccc(Cl)cc6Cl)O5)cc4)CC3)cc2)c1=O (centres unmarked) [Itraconazole, itraconazole, reference compound] |  |  |  | ED50 [4]: > 100 mg/kg
CCON=C(C(C)C)C1(C(O)(Cn2cncn2)c2ccc(F)cc2F)CC1 (centres unmarked) [Example 38] | 12.5 (≈ 33 µM) | 12.5 (≈ 33 µM) |  | 
CCC(=NOCn1cncn1)C1(C(O)(Cn2cncn2)c2ccc(F)cc2F)CC1 (centres unmarked) [Example 58] |  |  | 13.2 | 
COCON=C(C(C)C)C1(C(O)(Cn2cncn2)c2ccc(F)cc2F)CC1 (centres unmarked) [Example 1, 1-[1-[1-(2,4-difluorophenyl)-1-hydroxy-2-(1H-1,2,4-triazol-1-yl)ethyl]cyclopropyl]-2-methyl-1-propanone O-(methoxymethyl)oxime] | 25 (≈ 63.4 µM) | 25 (≈ 63.4 µM) |  | ED50 [7]: 4.9 mg/kg; evidence for abnormality [3]: no evidence for abnormality; ED50 [4]: 30.3 mg/kg
CCCC(=NOCOC)C1(C(O)(Cn2cncn2)c2ccc(F)cc2F)CC1 (centres unmarked) [Example 8] | 12.5 (≈ 31.7 µM) | 25 (≈ 63.4 µM) |  | ED50 [4]: 27.7 mg/kg
CON=CC(C)(C)C(O)(Cn1cncn1)c1ccc(Cl)cc1 (racemic) [Bay R 3783, (±)-3-(4-chlorophenyl)-2,2-dimethyl-3-hydroxy-4-(1,2,4-triazole-1-yl)butanol-oxime O-methylether] |  |  |  | hepatotoxicity as a side effect [8]: has hepatotoxicity as a side effect
CON=C(C)C(C)(C)C(O)(Cn1cncn1)c1ccc(F)cc1F (centres unmarked) [Example 21] | 3.13 (≈ 9.25 µM) | 3.13 (≈ 9.25 µM) |  | 
COC(OC)ON=C(C(C)C)C1(C(O)(Cn2cncn2)c2ccc(F)cc2F)CC1 (centres unmarked) [Example 72, 1-[1-[1-(2,4-difluorophenyl)-1-hydroxy-2-(1H-1,2,4-triazol-1-yl)ethyl]cyclopropyl]-2-methyl-1-propanone O-(dimethoxymethyl)oxime] |  |  | 13.5 | 
COCON=C(C1CC1)C1(C(O)(Cn2cncn2)c2ccc(F)cc2F)CC1 (centres unmarked) [Example 15] | 12.5 (≈ 31.9 µM) | 12.5 (≈ 31.9 µM) |  | 
COCON=C(C(C)C)C1(C(O)(Cn2cncn2)c2ccc(F)cc2F)CC1 (single isomer, unassigned; (-)) [Example 4, (-)-1-[1-[1-(2,4-difluorophenyl)-1-hydroxy-2-(1H-1,2,4-triazol-1-yl)ethyl]cyclopropyl]-2-methyl-1-propanone O-(methoxymethyl)oxime] |  |  |  | MIC [1]: 12.5 µg/mL (≈ 31.7 µM); MIC [2]: 12.5 µg/mL (≈ 31.7 µM)
CON=C(C(C)C)C1(C(O)(Cn2cncn2)c2ccc(F)cc2F)CC1 (single isomer, unassigned; (-)) [Example 6, (-)-1-[1-[1-(2,4-difluorophenyl)-1-hydroxy-2-(1H-1,2,4-triazol-1-yl)ethyl]cyclopropyl]-2-methyl-1-propanone O-methyl oxime] | 3.13 (≈ 8.59 µM) | 3.13 (≈ 8.59 µM) |  | 
COC(C)(OC)ON=C(C(C)C)C1(C(O)(Cn2cncn2)c2ccc(F)cc2F)CC1 (centres unmarked) [Example 73, 1-[1-[1-(2,4-difluorophenyl)-1-hydroxy-2-(1H-1,2,4-triazol-1-yl)ethyl]cyclopropyl]-2-methyl-1-propanone O-(1-dimethoxyethyl)oxime] |  |  | 5.8 | 

Continued, in another order:

MIC [1, 9] [µg/mL] | MIC [2, 10] [µg/mL] | Structure (SMILES) | ED50 [5] [mg/kg] | further results
12.5 (≈ 27.3 µM) | 12.5 (≈ 27.3 µM) | CC(C)C(=NOCCBr)C1(C(O)(Cn2cncn2)c2ccc(F)cc2F)CC1 (centres unmarked) [Example 44, 1-[1-[1-(2,4-difluorophenyl)-1-hydroxy-2-(1H-1,2,4-triazol-1-yl)ethyl]cyclopropyl]-2-methyl-1-propanone O-(2-bromoethyl)oxime] | 14.6 | 
3.13 (≈ 8.36 µM) | 3.13 (≈ 8.36 µM) | C#CCON=C(CC)C1(C(O)(Cn2cncn2)c2ccc(F)cc2F)CC1 (centres unmarked) [Example 51] | 11.3 | 
3.13 (≈ 7.06 µM) | 3.13 (≈ 7.06 µM) | CCC(=NOCCBr)C1(C(O)(Cn2cncn2)c2ccc(F)cc2F)CC1 (centres unmarked) [Example 55] | 14.7 | 
25 (≈ 63.7 µM) | 25 (≈ 63.7 µM) | CCCON=C(C(C)C)C1(C(O)(Cn2cncn2)c2ccc(F)cc2F)CC1 (centres unmarked) [Example 42] |  | 
6.25 (≈ 14.6 µM) | 6.25 (≈ 14.6 µM) | CCC(=NOCc1ccncc1)C1(C(O)(Cn2cncn2)c2ccc(F)cc2F)CC1 (centres unmarked) [Example 59] | 10.7 | 
12.5 (≈ 30.5 µM) | 12.5 (≈ 30.5 µM) | CSCON=C(C(C)C)C1(C(O)(Cn2cncn2)c2ccc(F)cc2F)CC1 (centres unmarked) [Example 41] |  | 
12.5 (≈ 32.1 µM) | 12.5 (≈ 32.1 µM) | CC(C)C(=NOCC#N)C1(C(O)(Cn2cncn2)c2ccc(F)cc2F)CC1 (centres unmarked) [Example 40] |  | 
6.25 (≈ 15.9 µM) | 6.25 (≈ 15.9 µM) | CCCCON=C(CC)C1(C(O)(Cn2cncn2)c2ccc(F)cc2F)CC1 (centres unmarked) [Example 56] | 14.7 | 
1.56 (≈ 3.93 µM) | 3.13 (≈ 7.89 µM) | CCC(=NOCSC)C1(C(O)(Cn2cncn2)c2ccc(F)cc2F)CC1 (centres unmarked) [Example 53] | 13.5 | 
